Laboratory results published in patent US8106055B2, “Substituted amide compounds” (Gruenenthal GmbH, priority 2007, dated 2012).

Assays:
[1] = biological target: T1, bradykinin 1 receptor (B1R) of the rat (Rattus norvegicus, UniProt P97583); assay: Functional investigation on the rat bradykinin 1 receptor (B1R), Ca2+ FLIPR assay in CHO K1 rB1R cells; type: cell-based; settings: B1R antagonism rat; test substance 10 μM; Ca2+ FLIPR, CHO K1 rB1R cells
T1 construct: expressed in transfected cells; host or cells: CHO K1 cells
T1 sequence (P97583 1-337): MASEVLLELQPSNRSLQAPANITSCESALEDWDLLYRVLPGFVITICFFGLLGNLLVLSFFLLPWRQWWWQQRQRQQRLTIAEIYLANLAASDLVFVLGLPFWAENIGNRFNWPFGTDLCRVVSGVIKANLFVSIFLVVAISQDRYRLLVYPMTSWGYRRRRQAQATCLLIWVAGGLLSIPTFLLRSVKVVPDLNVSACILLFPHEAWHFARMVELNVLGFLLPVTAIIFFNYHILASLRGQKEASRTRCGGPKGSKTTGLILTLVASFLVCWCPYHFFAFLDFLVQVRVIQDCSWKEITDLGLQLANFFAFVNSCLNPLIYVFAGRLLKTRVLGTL
Outline: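 Peak Ca2+-dependent fluorescence in B1R-transfected CHO K1 cells measures antagonism of an EC80 agonist challenge given 10-20 min after compound. Agonist is Lys-Des-Arg9-bradykinin for human, Des-Arg9-bradykinin for rat receptor.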

[2] = biological target: T2, human μ opiate receptor (Homo sapiens, UniProt P35372); assay: Affinity for the human μ opiate receptor ([3H]-naloxone displacement, CHO-K1 receptor membrane preparation, SPA); type: binding; settings: test concentration of 1 μM
T2 construct: purchased PerkinElmer Life Sciences, Zaventem, Belgium RB-HOM; host or cells: CHO-K1 cells (membrane preparation)
Outline: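 SPA, CHO-K1 hμ membranes; 1 nmol/l [3H]-naloxone; Tris-HCl 50 mmol/l + 0.06% BSA; 90 min RT; NSB with 100 μmol/l naloxone; β-counting. Readout: % inhibition of specific binding at 1 μM test compound.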

T2 sequence (P35372 whole entry): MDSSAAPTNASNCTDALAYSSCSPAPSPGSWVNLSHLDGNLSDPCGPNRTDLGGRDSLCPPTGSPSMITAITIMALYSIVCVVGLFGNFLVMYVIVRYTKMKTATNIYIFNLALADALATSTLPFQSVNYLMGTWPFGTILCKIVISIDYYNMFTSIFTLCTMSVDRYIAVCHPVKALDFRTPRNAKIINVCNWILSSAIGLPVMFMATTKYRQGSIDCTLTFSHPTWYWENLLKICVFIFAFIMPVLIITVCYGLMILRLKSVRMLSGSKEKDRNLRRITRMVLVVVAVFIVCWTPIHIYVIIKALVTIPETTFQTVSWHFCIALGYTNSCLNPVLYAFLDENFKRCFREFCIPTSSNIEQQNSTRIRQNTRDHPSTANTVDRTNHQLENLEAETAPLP

CN(C)C(CCc1ccccc1)C1CCC(CNC(=O)COCCN(C)S(=O)(=O)c2ccc(Cl)cc2Cl)CC1 (stereo not shown) [Example 513]
B1R Ant. r [10 μM] % Inhibition [1]: 40% | μ (binding on the μ opioid receptor, % inhibition) [2]: 38%

COc1ccc(S(=O)(=O)N(C)CCOCC(=O)NCC2CCC(C(c3ccc(F)cc3)N(C)C)CC2)cc1OC (stereo not shown) [Example 514]
B1R Ant. r [10 μM] % Inhibition [1]: 22% | μ (binding on the μ opioid receptor, % inhibition) [2]: 27%

CN(C)C(CCc1ccccc1)C1CCC(CNC(=O)COCCN(C)S(=O)(=O)c2c(Cl)cc(Cl)cc2Cl)CC1 (stereo not shown) [Example 515]
B1R Ant. r [10 μM] % Inhibition [1]: 54% | μ (binding on the μ opioid receptor, % inhibition) [2]: 42%

CN(C)C(c1ccc(F)cc1)C1CCC(CNC(=O)COC2CCN(S(=O)(=O)c3ccc(Cl)cc3)C2)CC1 (stereo not shown) [Example 517]
B1R Ant. r [10 μM] % Inhibition [1]: 38% | μ (binding on the μ opioid receptor, % inhibition) [2]: 40%

CN(C)C(c1ccc(F)cc1)C1CCC(CCNC(=O)COC2CCN(S(=O)(=O)c3ccc(F)cc3)C2)CC1 (stereo not shown) [Example 518]
B1R Ant. r [10 μM] % Inhibition [1]: 26% | μ (binding on the μ opioid receptor, % inhibition) [2]: 35%

COc1ccc(S(=O)(=O)N(C)CCOCC(=O)NCCC2CCC(C(c3ccc(F)cc3)N(C)C)CC2)cc1 (stereo not shown) [Example 519]
B1R Ant. r [10 μM] % Inhibition [1]: 44% | μ (binding on the μ opioid receptor, % inhibition) [2]: 39%

CN(C)C(c1ccc(F)cc1)C1CCC(CCNC(=O)COC2CCCN(S(=O)(=O)c3ccccc3)C2)CC1 (stereo not shown) [Example 520]
B1R Ant. r [10 μM] % Inhibition [1]: 24% | μ (binding on the μ opioid receptor, % inhibition) [2]: 31%

COc1cc(C)c(S(=O)(=O)N2CCC(CCOCC(=O)NCC3CCC(C(CCc4ccccc4)N(C)C)CC3)CC2)c(C)c1C (stereo not shown) [Example 521]
B1R Ant. r [10 μM] % Inhibition [1]: 11% | μ (binding on the μ opioid receptor, % inhibition) [2]: 39%

CN(C)C(c1ccc(F)cc1)C1CCC(CNC(=O)COC2CCN(S(=O)(=O)c3ccc(F)cc3)C2)CC1 (stereo not shown) [Example 522]
B1R Ant. r [10 μM] % Inhibition [1]: 12% | μ (binding on the μ opioid receptor, % inhibition) [2]: 35%

COc1cc(C)c(S(=O)(=O)N(CCOCC(=O)NC2CCC(C(c3ccc(F)cc3)N(C)C)CC2)Cc2ccccc2)c(C)c1C (stereo not shown) [Example 523]
B1R Ant. r [10 μM] % Inhibition [1]: 26% | μ (binding on the μ opioid receptor, % inhibition) [2]: 34%

COc1ccc(S(=O)(=O)N2CCCCC2COCC(=O)NC2CCC(C(c3ccc(F)cc3)N(C)C)CC2)c(OC)c1 (stereo not shown) [Example 524]
B1R Ant. r [10 μM] % Inhibition [1]: 26% | μ (binding on the μ opioid receptor, % inhibition) [2]: 33%

COc1cc(C)c(S(=O)(=O)N(C)CCOCC(=O)NCC2CCC(C(CCc3ccccc3)N(C)C)CC2)c(C)c1 (stereo not shown) [Example 525]
B1R Ant. r [10 μM] % Inhibition [1]: 93% | μ (binding on the μ opioid receptor, % inhibition) [2]: 31%

CN(C)C(CCc1ccccc1)C1CCC(CNC(=O)COCCN2CCN(S(=O)(=O)c3ccccc3)CC2)CC1 (stereo not shown) [Example 526]
B1R Ant. r [10 μM] % Inhibition [1]: −30% | μ (binding on the μ opioid receptor, % inhibition) [2]: 32%

COc1cc(C)c(S(=O)(=O)N2CCC(OCC(=O)NCC3CCC(C(c4ccc(F)cc4)N(C)C)CC3)CC2)c(C)c1C (stereo not shown) [Example 527]
B1R Ant. r [10 μM] % Inhibition [1]: 68% | μ (binding on the μ opioid receptor, % inhibition) [2]: 38%

COc1cc(C)c(S(=O)(=O)N2CCN(CCOCC(=O)NCC3CCC(C(CCc4ccccc4)N(C)C)CC3)CC2)c(C)c1C (stereo not shown) [Example 528]
B1R Ant. r [10 μM] % Inhibition [1]: 14% | μ (binding on the μ opioid receptor, % inhibition) [2]: 34%

CN(C)C(c1ccc(F)cc1)C1CCC(CCNC(=O)COC2CCN(S(=O)(=O)c3ccccc3)C2)CC1 (stereo not shown) [Example 530]
B1R Ant. r [10 μM] % Inhibition [1]: 27% | μ (binding on the μ opioid receptor, % inhibition) [2]: 26%

CN(C)C(c1ccc(Cl)cc1)C1CCC(CCNC(=O)COCCC2CCN(S(=O)(=O)c3ccccc3)CC2)CC1 (stereo not shown) [Example 531]
B1R Ant. r [10 μM] % Inhibition [1]: −1% | μ (binding on the μ opioid receptor, % inhibition) [2]: 23%

CN(C)C(c1ccc(F)cc1)C1CCC(CNC(=O)COC2CCN(S(=O)(=O)c3ccccc3)C2)CC1 (stereo not shown) [Example 532]
B1R Ant. r [10 μM] % Inhibition [1]: −14% | μ (binding on the μ opioid receptor, % inhibition) [2]: 35%

CN(C)C(CCc1ccccc1)C1CCC(CNC(=O)COCCN(Cc2ccccc2)S(=O)(=O)c2ccccc2)CC1 (stereo not shown) [Example 533]
B1R Ant. r [10 μM] % Inhibition [1]: 12% | μ (binding on the μ opioid receptor, % inhibition) [2]: 28%

COc1ccc(S(=O)(=O)N2CCCCC2CCOCC(=O)NCC2CCC(C(CCc3ccccc3)N(C)C)CC2)cc1 (stereo not shown) [Example 535]
B1R Ant. r [10 μM] % Inhibition [1]: 72% | μ (binding on the μ opioid receptor, % inhibition) [2]: 34%

CCN(CCOCC(=O)NCC1CCC(C(CCc2ccccc2)N(C)C)CC1)S(=O)(=O)c1c(C)cc(OC)c(C)c1C (stereo not shown) [Example 536]
B1R Ant. r [10 μM] % Inhibition [1]: 95% | μ (binding on the μ opioid receptor, % inhibition) [2]: 43%

Cc1ccc(S(=O)(=O)N2CCC(OCC(=O)NCC3CCC(C(CCc4ccccc4)N(C)C)CC3)C2)cc1 (stereo not shown) [Example 538]
B1R Ant. r [10 μM] % Inhibition [1]: 5% | μ (binding on the μ opioid receptor, % inhibition) [2]: 25%

CN(C)C(CCc1ccccc1)C1CCC(CNC(=O)COCCN(C)S(=O)(=O)c2ccc(F)cc2)CC1 (stereo not shown) [Example 539]
B1R Ant. r [10 μM] % Inhibition [1]: 32% | μ (binding on the μ opioid receptor, % inhibition) [2]: 32%

COc1ccc(S(=O)(=O)N2CCCCC2COCC(=O)NCCC2CCC(C(c3ccc(Cl)cc3)N(C)C)CC2)cc1OC (stereo not shown) [Example 540]
B1R Ant. r [10 μM] % Inhibition [1]: 19% | μ (binding on the μ opioid receptor, % inhibition) [2]: 23%

COc1cc(C)c(S(=O)(=O)N2CCC(OCC(=O)NCC3CCC(C(c4ccc(F)cc4)N(C)C)CC3)C2)c(C)c1 (stereo not shown) [Example 541]
B1R Ant. r [10 μM] % Inhibition [1]: 104% | μ (binding on the μ opioid receptor, % inhibition) [2]: 34%

COc1cc(C)c(S(=O)(=O)N(CCOCC(=O)NCC2CCC(C(CCc3ccccc3)N(C)C)CC2)Cc2ccccc2)c(C)c1 (stereo not shown) [Example 542]
B1R Ant. r [10 μM] % Inhibition [1]: 45% | μ (binding on the μ opioid receptor, % inhibition) [2]: 33%
